Source: US20050042256A1, “Lipid blends and food products containing oleic fatty acid and omega-6 fatty acids, designed to increase the intramyocellular lipid level” (priority 2001, published 2005)

System: Human skeletal muscle cells
Assay: IMCL (triacylglycerol) accumulation in muscle cells incubated with fatty acids
Format: cell-based
Conditions: 0.5 mM FFA salt bound to albumin, DMEM + 25 mM glucose, 24 hrs at 37° C; FIGURE 1
Procedure: Human skeletal muscle cells were used as a model to test the effect that different fatty acids (as precursors) may have on the extent of muscle triglyceride storage.
Primary cultures were initiated from a bank of satellite cells of muscle biopsies obtained from patients free of muscle disease. Aneural muscle cultures were established in a monolayer, then they were grown in a DMEM-M-199 medium, 3:1, supplemented with 10% fetal bovine serum, 10 μg/ml insulin, 2 mM glutamine, 25 ng/ml fibroblast growth factor, and 10 ng/ml epidermal growth factor. Immediately after myoblast fusion, cells were rinsed in Hank's balanced salt solution and a medium devoid of FGF, EGF, and glutamine was added. Muscle cultures were maintained in this medium for up to 4 weeks.
Cells were incubated with DMEM+glucose (25 mM)+0.5 mM FFA salt bound to albumin (in independent experiments for each FFA), for 24 hrs at 37° C. As examples for the fatty acids used in blend 1 (promoting IMCL storage), oleate (C18:1 cis), linoleate (C18:2 cis/cis), n-6 linoleate and n-3 linoleate.
As examples for the fatty acids used in blend 2 (inhibiting IMCL storage), octanoate (C8:0), palinitate (C16:0) and stearate (C18:0).
After incubation, cell lipids were extracted according to the method of Bligh and Dyer (Can. J. Biochem Physiol 37: 911-917, 1959). To determine the IMCL content, extracts were prepared by scraping cell monolayers in a buffer consisting of 50 mM Tris, 100 mM KCl, 20 mM KF, 0.5 mM EDTA and 0.05% Lubrol PX, pH 7.9, and they were sonicated three times for 5 seconds. Homogenates were centrifuged at 11′000 g for 15 min and the resulting supernatants were collected. Total triacylglycerol (i.e. IMCL) was measured with a Cobas-Bio autoanalyzer with a GPO-Trinder kit, with triolein resuspended in the extraction buffer as a standard. The intramyocellular nature of the triglycerides was evidenced by histo-chemical staining with Sudan III in 70% ethanol.

SMILES	accumulation / synthesis of IMCL (total triacylglycerol)
CCCCC/C=C\C/C=C\CCCCCCCC(=O)O [linoleate, linoleate (C18:2 cis/cis)]	notably higher synthesis
CCCCCCCC(=O)O [octanoate, octanoate (C8:0)]	no accumulation of IMCL
CCCCCCCC/C=C\CCCCCCCC(=O)O [oleate, oleate (C18:1 cis)]	notably higher synthesis
CCCCCCCCCCCCCCCCCC(=O)O [stearate, stearate (C18:0)]	moderate synthesis
